Our source for the inhibition and melting point values is patent publication US8846713B2, “Fused heterocyclic compounds as phosphodiesterases (PDEs) inhibitors” (Takeda Pharmaceutical Company Limited, priority 2010, dated 2014).

SMILES strings stand for the structures.

One data set addresses T1, Human PDE10A enzyme (Homo sapiens, UniProt Q9Y233).
T1 construct: transfected with the full-length gene; His-tag; made in house; host or cells: Sf9 or COS-7 cells
As to the kind of experiment: PDE enzyme inhibition, SPA (Scintillation Proximity Assay) with [3H]cGMP. It is filed as biochemical. The note with it: [3H]cGMP substrate; for inhibition at 1 µM: compound 1 μM, read-out: Percent inhibition (1 μM); for inhibition at 10 µM: compound 10 μM, read-out: Percent inhibition (10 μM). How it is done:
Human PDE10A enzyme was generated from Sf9 or COS-7 cells transfected with the full-length gene. Cloned enzyme was extracted from homogenized cell pellets. The extracted enzyme from sf9 cells was partially purified using His-tag affinity column. The enzyme was stored at −70° C. until use. PDE activity was measured using a SPA (Scintillation Proximity Assay) (GE Healthcare). To evaluate the inhibitory activity, 10 μL of serial diluted compounds were incubated with 20 μL of PDE enzyme in assay buffer (50 mM HEPES-NaOH, 8.3 mM MgCl2, 1.7 mM EGTA, 0.1% BSA (pH 7.4)) for 30 min. at room temperature. Final concentration of DMSO in the assay was 1 percent as compounds were tested in duplicate in 96-well half-area plates (Corning). To start the reaction, 10 μL of substrate [^3H] cGMP (25 or 50 nM; enclosed in SPA kits from GE Healthcare or purchased from PerkinElmer, respectively) was added for a final assay volume of 40 μL. After 60 min incubation at room temperature, yttrium SPA beads containing Zinc sulphate were added (20 μL at 6 mg/mL) to terminate the PDE reaction. After being settled for 60 min, assay plates were counted in a scintillation counter (PerkinElmer) to allow calculation of inhibition rate. Inhibition rate was calculated on the basis of 0% control wells with DMSO and 100% control wells without enzyme.
Background: SPA uses beads or plates that emit light when radiolabelled molecules are held near them.

T1 sequence (Q9Y233 267-1055): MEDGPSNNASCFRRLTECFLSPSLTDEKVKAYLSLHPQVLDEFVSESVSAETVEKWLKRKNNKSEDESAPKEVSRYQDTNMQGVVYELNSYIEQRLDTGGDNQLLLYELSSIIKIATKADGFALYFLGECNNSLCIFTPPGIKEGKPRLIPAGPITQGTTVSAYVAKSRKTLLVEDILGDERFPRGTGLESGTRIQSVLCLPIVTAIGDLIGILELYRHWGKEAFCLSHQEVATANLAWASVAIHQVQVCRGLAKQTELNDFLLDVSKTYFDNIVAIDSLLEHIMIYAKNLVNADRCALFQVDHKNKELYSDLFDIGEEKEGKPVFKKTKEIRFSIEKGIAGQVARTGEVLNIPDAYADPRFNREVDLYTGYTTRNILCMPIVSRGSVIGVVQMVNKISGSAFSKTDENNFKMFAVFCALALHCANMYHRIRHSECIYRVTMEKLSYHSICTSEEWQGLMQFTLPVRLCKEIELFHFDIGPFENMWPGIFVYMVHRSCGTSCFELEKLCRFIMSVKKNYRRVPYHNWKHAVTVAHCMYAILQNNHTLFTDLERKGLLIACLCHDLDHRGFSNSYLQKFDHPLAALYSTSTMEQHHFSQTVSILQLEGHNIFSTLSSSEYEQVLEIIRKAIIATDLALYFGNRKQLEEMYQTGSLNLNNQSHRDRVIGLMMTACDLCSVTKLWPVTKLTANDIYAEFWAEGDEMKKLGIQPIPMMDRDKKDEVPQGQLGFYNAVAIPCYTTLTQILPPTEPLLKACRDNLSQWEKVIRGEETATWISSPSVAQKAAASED

`CCn1c(=O)n(-c2ccc(Oc3nc4cccnc4n3C)cc2)c2nccc(C(F)(F)F)c21` [Example 130, 1-ethyl-3-{4-[(3-methyl-3H-imidazo[4,5-b]pyridin-2-yl)oxy]phenyl}-7-(trifluoromethyl)-1,3-dihydro-2H-imidazo[4,5-b]pyridin-2-one]: the melting point (in general, the temperature of the solid-liquid transition) lay in the range of 244 to 246 °C. Moreover, on Human PDE10A enzyme, the inhibition (as a rule, the change of the read-out against control, counted positive when it falls) at 1 µM is 95% and the inhibition at 10 µM was 98%.
Taken in the same sequence, the figures for `CCn1c(=O)n(-c2ccc(Oc3nc4cccnc4n3C)cc2)c2ncc(OCC(F)(F)F)cc21` [Example 129, 1-ethyl-3-{4-[(3-methyl-3H-imidazo[4,5-b]pyridin-2-yl)oxy]phenyl}-6-(2,2,2-trifluoroethoxy)-1,3-dihydro-2H-imidazo[4,5-b]pyridin-2-one] were 178 to 179 °C, 89% and 96%.
For `CCn1c(=O)n(-c2ccc(Oc3nc4cccnc4n3C)cc2)c2ncc(OC)cc21` [Example 119, 1-ethyl-6-methoxy-3-{4-[(3-methyl-3H-imidazo[4,5-b]pyridin-2-yl)oxy]phenyl}-1,3-dihydro-2H-imidazo[4,5-b]pyridin-2-one], in that order: 197 to 198 °C, 99% and 103%.
For `Cc1ccnc2c1n(C(C)C)c(=O)n2-c1ccc(Oc2nc3cccnc3n2C)cc1` [Example 121, 7-methyl-1-(1-methylethyl)-3-{4-[(3-methyl-3H-imidazo[4,5-b]pyridin-2-yl)oxy]phenyl}-1,3-dihydro-2H-imidazo[4,5-b]pyridin-2-one], in that order: 270 to 271 °C, 103% and 99%.
For `CCn1c(=O)n(-c2ccc(N3CCn4c3nc3cccnc34)cc2)c2ncccc21` [Example 134, 3-[4-(2,3-dihydro-1H-imidazo[2′,1′:2,3]imidazo[4,5-b]pyridin-1-yl)phenyl]-1-ethyl-1,3-dihydro-2H-imidazo[4,5-b]pyridin-2-one], the melting point was 255 to 256 °C. On Human PDE10A enzyme, the inhibition at 1 µM was 101% and the inhibition at 10 µM was 104%.
Taken in the same sequence, the figures for `CCn1c(=O)n(-c2ccc(Oc3nc4cccnc4n3C)cc2)c2ncc(C)cc21` [Example 118, 1-ethyl-6-methyl-3-{4-[(3-methyl-3H-imidazo[4,5-b]pyridin-2-yl)oxy]phenyl}-1,3-dihydro-2H-imidazo[4,5-b]pyridin-2-one] were 217 to 219 °C, 102% and 104%.
`CCn1c(=O)n(-c2ccc(Oc3nc4cccnc4n3C)cc2)c2ncc(OC(F)F)cc21` [Example 127, 6-(difluoromethoxy)-1-ethyl-3-{4-[(3-methyl-3H-imidazo[4,5-b]pyridin-2-yl)oxy]phenyl}-1,3-dihydro-2H-imidazo[4,5-b]pyridin-2-one]: the melting point was in the range of 195 to 197 °C. In addition, on Human PDE10A enzyme, the inhibition at 1 µM was found to be 101% and the inhibition at 10 µM was 101%.
